Test results as given in patent publication US20130150340A1, “6-(4-Hydroxy-phenyl)-1H-pyrazolo[3,4-b]pyridine-4-carboxylic acid amide derivatives as kinase inhibitors” (SANOFI, priority 2011, published 2013).

Target: T1, human full-length recombinant PKC βII (Homo sapiens, UniProt P05771)
T1 construct: Active human full-length recombinant PKC βII; purchased Invitrogen GmbH, Darmstadt, Germany
Test: Determination of PKC βII inhibition (Caliper mobility-shift kinase assay)
Format: biochemical
Settings: example compounds at a final concentration of 1.14 μM (±0.15 μM); 60 min incubation at 32° C.
Method: Determination of PKC 3H Inhibition
PKC βII inhibition was determined according to the following protocol:
Active human full-length recombinant PKC βII and the peptide substrate, Fluorescein-RFARKGSLRQKNV, were purchased from Invitrogen GmbH, Darmstadt, Germany. Adenosine-5′-triphosphate (ATP), bovine serum albumine (BSA), dimethylsulphoxide (DMSO), 4-(2-hydroxyethyl)piperazine-1-ethanesulfonic acid (Hepes), Triton X-100, 1,2-Dioleoyl-sn-glycerol (DAG), L-α-Phosphatidyl-L-serine (PS), calcium chloride (CaCl2), and Pluronic F-68 were purchased from Sigma-Aldrich, Munich, Germany. Magnesium chloride, 1 M sodium hydroxide solution, 1M hydrochloric acid solution and EDTA were obtained from Merck Biosciences, Darmstadt, Germany.
Test compounds were diluted to three times the test concentration in buffer 1 (30 mM Hepes-NaOH, pH 7.4, 0.01% Pluronic F-68 and 3% (v/v) DMSO). The PKC βII enzyme was diluted to a concentration of 30 ng/ml in buffer 2 (30 mM Hepes-NaOH, pH 7.4, 15 mM MgCl2, 150 μM CaCl2, 150 μg/ml PS, 60 μg/ml DAG, and 0.045% (w/v) Triton X-100). The peptide substrate and ATP were diluted to concentrations of 3 μM and 120 μM, respectively, in buffer 2. Two μl of the compound solution were mixed with 2 μl of the diluted enzyme in a 384-well small volume microtiter plate (Greiner, Bio-One, Frickenhausen, Germany), and the kinase reaction was initiated by addition of 2 μl of the solution containing peptide substrate and ATP. After 60 min incubation at 32° C., the reaction was stopped by addition of 20 μl of a solution containing 130 mM Hepes-NaOH, pH 7.4, 0.0195% (v/v) Brij-35, 6.5 mM EDTA, 0.13% chip coating reagent 3 (Caliper Lifescience Inc, Hopkinton, Mass.) and 6.5% (v/v) DMSO. Phosphorylation of the substrate peptide was then detected on a Caliper 3000 instrument essentially as described by Pommereau et al (J. Biomol. Screening 2004, 9(5), […]), Separation conditions were as follows: Pressure −0.8 psi, upstream voltage −3000 V, downstream voltage −800 V. Positive controls (buffer 1 instead of compound) and negative controls (buffer 1 instead of compound and buffer 2 instead of kinase solution) were run in parallel on each plate. Fractional turnover (R) was determined as the height of the peak of the phosphorylated peptide product divided by the sum of the unphosphorylated substrate and phosphorylated product peak heights. Percent-inhibition values for the test compounds were determined using the formula
% Inhibition=100*(1−(Rcompound−Rnegative control)/(Rpositive control−Rnegative control).

T1 sequence (P05771 1-673 isoform P05771-2): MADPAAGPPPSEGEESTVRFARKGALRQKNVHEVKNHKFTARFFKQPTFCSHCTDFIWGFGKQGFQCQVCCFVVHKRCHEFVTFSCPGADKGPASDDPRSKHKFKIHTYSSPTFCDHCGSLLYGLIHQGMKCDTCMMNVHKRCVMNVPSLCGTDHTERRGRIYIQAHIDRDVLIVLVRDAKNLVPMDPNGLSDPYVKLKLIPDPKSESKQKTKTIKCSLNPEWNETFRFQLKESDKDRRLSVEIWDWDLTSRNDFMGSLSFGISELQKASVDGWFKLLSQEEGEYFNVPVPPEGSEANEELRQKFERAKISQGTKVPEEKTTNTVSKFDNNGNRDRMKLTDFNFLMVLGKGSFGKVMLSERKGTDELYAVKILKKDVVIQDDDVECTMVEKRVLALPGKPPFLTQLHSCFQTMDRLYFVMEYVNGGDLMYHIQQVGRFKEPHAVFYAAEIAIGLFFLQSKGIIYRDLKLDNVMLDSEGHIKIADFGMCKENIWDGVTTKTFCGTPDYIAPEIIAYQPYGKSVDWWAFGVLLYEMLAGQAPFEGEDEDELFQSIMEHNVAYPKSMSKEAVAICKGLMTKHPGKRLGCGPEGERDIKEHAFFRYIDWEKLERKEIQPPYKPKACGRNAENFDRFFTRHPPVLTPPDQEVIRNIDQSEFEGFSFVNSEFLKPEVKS

Row | Structure (SMILES) | inhibition at 1.14 µM [%]
1 | O=C(NC1CCNCC1)c1cc(-c2ccc(O)cc2)nc2[nH]ncc12 [Example 2, 6-(4-Hydroxy-phenyl)-1H-pyrazolo[3,4-b]pyridine-4-carboxylic acid piperidin-4-ylamide] | 27
2 | CC(C)C1CN(C(=O)c2cc(-c3ccc(O)cc3F)nc3[nH]ncc23)C(C)(C)CN1 (centres unmarked) [Example 15, [6-(2-Fluoro-4-hydroxy-phenyl)-1H-pyrazolo[3,4-b]pyridin-4-yl]-(5-isopropyl-2,2-dimethyl-piperazin-1-yl)-methanone] | 94
3 | N[C@H]1CCN(C(=O)c2cc(-c3ccc(O)cc3)nc3[nH]ncc23)C1 [Example 17, ((S)-3-Amino-pyrrolidin-1-yl)-[6-(4-hydroxy-phenyl)-1H-pyrazolo[3,4-b]pyridin-4-yl]-methanone] | 64
4 | CCN1CC2CC1CN2C(=O)c1cc(-c2ccc(O)cc2)nc2[nH]ncc12 (centres unmarked) [Example 70, (5-Ethyl-2,5-diaza-bicyclo[2.2.1]hept-2-yl)-[6-(4-hydroxy-phenyl)-1H-pyrazolo[3,4-b]pyridin-4-yl]-methanone] | 46
5 | O=C(c1cc(-c2ccc(O)cc2)nc2[nH]ncc12)N1CCN(C2CCCCCC2)CC1 [Example 58, (4-Cycloheptyl-piperazin-1-yl)-[6-(4-hydroxy-phenyl)-1H-pyrazolo[3,4-b]pyridin-4-yl]-methanone] | 40
6 | NC1CCCN(C(=O)c2cc(-c3ccc(O)cc3)nc3[nH]ncc23)C1 (centres unmarked) [Example 3, (3-Amino-piperidin-1-yl)-[6-(4-hydroxy-phenyl)-1H-pyrazolo[3,4-b]pyridin-4-yl]-methanone] | 95
7 | N[C@@H]1CCN(C(=O)c2cc(-c3ccc(O)cc3)nc3[nH]ncc23)C1 [Example 16, ((R)-3-Amino-pyrrolidin-1-yl)-[6-(4-hydroxy-phenyl)-1H-pyrazolo[3,4-b]-pyridin-4-yl]-methanone] | 66
8 | O=C1CCC(CNC(=O)c2cc(-c3ccc(O)cc3)nc3[nH]ncc23)N1 (centres unmarked) [Example 63, 6-(4-Hydroxy-phenyl)-1H-pyrazolo[3,4-b]pyridine-4-carboxylic acid (5-oxo-pyrrolidin-2-ylmethyl)-amide] | 48
9 | N[C@H]1CC[C@H](NC(=O)c2cc(-c3ccc(O)cc3)nc3[nH]ncc23)CC1 [Example 9, 6-(4-Hydroxy-phenyl)-1H-pyrazolo[3,4-b]pyridine-4-carboxylic acid (trans-4-amino-cyclohexyl)-amide] | 82
10 | CC(=O)N1CCC(NC(=O)c2cc(-c3ccc(O)cc3)nc3[nH]ncc23)CC1 [Example 68, 6-(4-Hydroxy-phenyl)-1H-pyrazolo[3,4-b]pyridine-4-carboxylic acid (1-acetyl-piperidin-4-yl)-amide] | 40
11 | CN1CCN(C(=O)c2cc(-c3ccc(O)cc3)nc3[nH]ncc23)CC1 [Example 52, [6-(4-Hydroxy-phenyl)-1H-pyrazolo[3,4-b]pyridin-4-yl]-(4-methyl-piperazin-1-yl)-methanone] | 38
12 | O=C(c1cccnc1)N1CCN(C(=O)c2cc(-c3ccc(O)cc3)nc3[nH]ncc23)CC1 [Example 74, [6-(4-Hydroxy-phenyl)-1H-pyrazolo[3,4-b]pyridin-4-yl]-[4-(pyridine-3-carbonyl)-piperazin-1-yl]-methanone] | 35
13 | N[C@H]1CC[C@H](CNC(=O)c2cc(-c3ccc(O)cc3)nc3[nH]ncc23)CC1 [Example 11, 6-(4-Hydroxy-phenyl)-1H-pyrazolo[3,4-b]pyridine-4-carboxylic acid (trans-4-amino-cyclohexylmethyl)-amide] | 87
14 | CN1CCN(C(=O)c2cc(-c3ccc(O)cc3)nc3[nH]ncc23)CC1=O [Example 76, 4-[6-(4-Hydroxy-phenyl)-1H-pyrazolo[3,4-b]pyridine-4-carbonyl]-1-methyl-piperazin-2-one] | 30
15 | CC1CN(C(=O)c2cc(-c3ccc(O)cc3)nc3[nH]ncc23)CCN1 (centres unmarked) [Example 37, [6-(4-Hydroxy-phenyl)-1H-pyrazolo[3,4-b]pyridin-4-yl]-(3-methyl-piperazin-1-yl)-methanone] | 91
16 | CC1(C)CC(NC(=O)c2cc(-c3ccc(O)cc3)nc3[nH]ncc23)CC(C)(C)N1 [Example 1, 6-(4-Hydroxy-phenyl)-1H-pyrazolo[3,4-b]pyridine-4-carboxylic acid (2,2,6,6-tetramethyl-piperidin-4-yl)-amide] | 18
17 | O=C(NC1CCN(C2CCCCC2)CC1)c1cc(-c2ccc(O)cc2)nc2[nH]ncc12 [Example 67, 6-(4-Hydroxy-phenyl)-1H-pyrazolo[3,4-b]pyridine-4-carboxylic acid (1-cyclohexyl-piperidin-4-yl)-amide] | 64
18 | O=C(c1cc(-c2ccc(O)cc2)nc2[nH]ncc12)N1CCCNCC1 [Example 7, [1,4]Diazepan-1-yl-[6-(4-hydroxy-phenyl)-1H-pyrazolo[3,4-b]pyridin-4-yl]-methanone] | 84
19 | O=C(NC1CCNC1)c1cc(-c2ccc(O)cc2)nc2[nH]ncc12 (centres unmarked) [Example 5, 6-(4-Hydroxy-phenyl)-1H-pyrazolo[3,4-b]pyridine-4-carboxylic acid pyrrolidin-3-ylamide] | 85
20 | O=C(c1cc(-c2ccc(O)cc2)nc2[nH]ncc12)N1CCC2(CC1)CNCCO2 [Example 26, [6-(4-Hydroxy-phenyl)-1H-pyrazolo[3,4-b]pyridin-4-yl]-(1-oxa-4,9-diaza-spiro[5.5]undec-9-yl)-methanone] | 36
21 | N[C@H]1C[C@@H]1NC(=O)c1cc(-c2ccc(O)cc2)nc2[nH]ncc12 (racemic) [Example 51, 6-(4-Hydroxy-phenyl)-1H-pyrazolo[3,4-b]pyridine-4-carboxylic acid (trans-2-amino-cyclopropyl)-amide] | 55
22 | O=C(c1cc(-c2ccc(O)cc2)nc2[nH]ncc12)N1CCOC2(CCCNC2)C1 (centres unmarked) [Example 27, [6-(4-Hydroxy-phenyl)-1H-pyrazolo[3,4-b]pyridin-4-yl]-(1-oxa-4,8-diaza-spiro[5.5]undec-4-yl)-methanone] | 42
23 | NC1CC(NC(=O)c2cc(-c3ccc(O)cc3)nc3[nH]ncc23)C1 (centres unmarked) [Example 14, 6-(4-Hydroxy-phenyl)-1H-pyrazolo[3,4-b]pyridine-4-carboxylic acid (3-amino-cyclobutyl)-amide] | 69
24 | O=C1CC[C@@H](NC(=O)c2cc(-c3ccc(O)cc3)nc3[nH]ncc23)CN1 [Example 69, 6-(4-Hydroxy-phenyl)-1H-pyrazolo[3,4-b]pyridine-4-carboxylic acid ((R)-6-oxo-piperidin-3-yl)-amide] | 59
25 | CO[C@H]1CNC[C@@H]1NC(=O)c1cc(-c2ccc(O)cc2)nc2[nH]ncc12 (racemic) [Example 29, 6-(4-Hydroxy-phenyl)-1H-pyrazolo[3,4-b]pyridine-4-carboxylic acid (trans-4-methoxy-pyrrolidin-3-yl)-amide] | 87
26 | O=C(c1cc(-c2ccc(O)cc2)nc2[nH]ncc12)N1CC2(CCNCC2)C1 [Example 20, (2,7-Diaza-spiro[3.5]non-2-yl)-[6-(4-hydroxy-phenyl)-1H-pyrazolo[3,4-b]pyridin-4-yl]-methanone] | 77
27 | O=C(NC1CCN(Cc2ccncc2)CC1)c1cc(-c2ccc(O)cc2)nc2[nH]ncc12 [Example 75, 6-(4-Hydroxy-phenyl)-1H-pyrazolo[3,4-b]pyridine-4-carboxylic acid (1-pyridin-4-ylmethyl-piperidin-4-yl)-amide] | 45
28 | N[C@H]1C[C@H](NC(=O)c2cc(-c3ccc(O)cc3)nc3[nH]ncc23)C1 [Example 30, 6-(4-Hydroxy-phenyl)-1H-pyrazolo[3,4-b]pyridine-4-carboxylic acid (trans-3-amino-cyclobutyl)-amide] | 68
29 | O=C(N[C@H]1CN2CCC1CC2)c1cc(-c2ccc(O)cc2)nc2[nH]ncc12 [Example 18, 6-(4-Hydroxy-phenyl)-1H-pyrazolo[3,4-b]pyridine-4-carboxylic acid-(R)-(1-Aza-bicyclo[2.2.2]oct-3-yl)amide] | 72
